Results: patent US6608061B2, “Bisaryl compound and medicament for cancer treatment comprising the same” (Kyoma Hakko Kogyo Co., Ltd., priority 1997, dated 2003)

Legend:
[1] = test system: HeLa S3 cells; experiment: Test for growth inhibition of HeLa S3 cells; type: cell-based; details: Homo sapiens, HeLa S3, 72 h, HeLa S3 cells, 72 hours with test compound, Cell Proliferation Kit II; read-out: Cell growth inhibition (IC50)
Method: Test for Growth Inhibition of Hela S3 Cells
HeLa S3 cells prepared at 1×10^4 cells/ml in MEM culture medium containing 10% fetal bovine serum and 2 mM glutamine were added to each well of a 96-well microtiter plate (0.1 ml for each well). The cells were cultured at 37° C. in a CO2 incubator for 24 hours, and then 0.05 ml of test compound appropriately diluted with the above medium was added to each well, and then the mixture was cultured at 37° C. in a CO2 incubator for 72 hours. After the culture supernatant was removed, each well was washed with 0.1 ml of PBS buffer twice, and 0.1 ml of the aforementioned medium was added to each well again.
Cell Proliferation Kit II (Boehringer Mennheim) was used for measurement of cell number in each well. After a coloring reaction reagent was added, the plate was warmed to 37° C. in a CO2 incubator for 3 hours. Then, absorbances at 490 nm and 655 nm were measured by a microplate reader, and a value (difference of absorbance) was calculated for each well by subtracting the absorbance at […] from the absorbance at 490 nm. By comparing the differences of absorbance for cells without treatment and cells treated with a test compound at a known concentration, a concentration of test compound which inhibited the cell growth by 50% was calculated, and the value obtained was determined as IC50. The values of RNR inhibitory activity obtained in Example 8, and the values of cell growth inhibitory activity obtained in Example 9 are shown in the following tables (the compound numbers used in the tables correspond to the compound numbers shown in the aforementioned tables).

[2] = molecular target: T1, human RNR (purified R1 and R2 subunits) (Homo sapiens, UniProt P23921+P31350); experiment: In vitro measurement of human RNR inhibitory activity (conversion of CDP to dCDP, HPLC); type: biochemical; details: 100 μM CDP, 37° C., 30 minutes, read-out: RNR Inhibition (IC50)
T1 construct: made in house; host or cells: Escherichia coli BL21(λDE3)pLysS, plasmids pETR1 and pETR2 (pET3a backbone)
T1 sequence (P23921 1-792): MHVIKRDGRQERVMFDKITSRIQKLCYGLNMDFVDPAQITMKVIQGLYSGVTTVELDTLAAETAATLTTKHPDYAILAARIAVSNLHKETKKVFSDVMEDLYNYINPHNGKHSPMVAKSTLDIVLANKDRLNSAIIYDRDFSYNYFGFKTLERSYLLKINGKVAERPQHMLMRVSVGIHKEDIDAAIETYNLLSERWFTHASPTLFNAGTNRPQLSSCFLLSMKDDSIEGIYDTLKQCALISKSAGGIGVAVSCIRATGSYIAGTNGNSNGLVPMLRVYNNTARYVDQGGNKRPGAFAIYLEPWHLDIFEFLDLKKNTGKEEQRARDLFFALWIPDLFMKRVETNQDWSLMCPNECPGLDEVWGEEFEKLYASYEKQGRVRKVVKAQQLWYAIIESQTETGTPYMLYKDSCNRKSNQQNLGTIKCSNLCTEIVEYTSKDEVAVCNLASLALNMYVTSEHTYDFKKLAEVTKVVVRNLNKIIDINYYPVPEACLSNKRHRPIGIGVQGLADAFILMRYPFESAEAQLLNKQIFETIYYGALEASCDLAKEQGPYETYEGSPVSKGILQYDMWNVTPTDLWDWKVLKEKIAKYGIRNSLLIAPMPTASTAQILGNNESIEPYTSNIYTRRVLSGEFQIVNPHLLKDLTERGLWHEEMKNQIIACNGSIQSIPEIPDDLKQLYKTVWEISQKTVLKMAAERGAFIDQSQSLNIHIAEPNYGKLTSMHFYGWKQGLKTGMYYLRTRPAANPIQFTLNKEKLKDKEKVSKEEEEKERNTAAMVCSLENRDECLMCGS
T1 sequence (P31350 1-389): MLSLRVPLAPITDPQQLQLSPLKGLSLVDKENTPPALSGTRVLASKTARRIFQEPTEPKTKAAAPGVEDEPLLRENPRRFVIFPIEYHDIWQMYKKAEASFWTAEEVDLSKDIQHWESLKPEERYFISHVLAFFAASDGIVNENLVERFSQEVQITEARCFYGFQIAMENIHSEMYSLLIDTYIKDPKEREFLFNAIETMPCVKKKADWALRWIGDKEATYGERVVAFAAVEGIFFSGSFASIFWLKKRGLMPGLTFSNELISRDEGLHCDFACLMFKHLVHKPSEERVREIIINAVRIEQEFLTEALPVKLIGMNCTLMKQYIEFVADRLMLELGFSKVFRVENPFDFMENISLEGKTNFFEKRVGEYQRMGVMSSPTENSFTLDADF

[3] = test system: human ovary cancer A2780 cells; experiment: Antineoplastic effect against human ovary cancer A2780 cells transplanted to nude mice; type: in vivo, nude mice BALB/cAJcl-nu; details: Mus musculus, ip, A2780 s.c. in nude mice, read-out: Antitumor activity T/C; for response vs control in vivo at 500 mg/kg/day: 168 h, 500 mg/kg/day intraperitoneally once a day for 5 days, evaluation day 7
Text: Antineoplastic Effect Against Human Ovary Cancer A2780 Cells
2 mm cubes (tumor fragments of 8 mm^3) of human ovary cancer A2780 cells were subcutaneously transplanted to nude mice BALB/cAJcl-nu (CLEA JAPAN) in the abdomens. When the tumor volume reached to from 50 to 300 mm^3 after the transplantation, the mice were arbitrarily divided into groups each consisting of 5 mice, and intraperitoneally administered with a drug solution once a day for 5 days. After weighing compounds, the drug solution was prepared before use by dissolving the drug in 99.5% ethanol (final concentration: 5%, analytical grade, Kanto Kagaku) or N,N-dimethylacetamide (final concentration: 5%, analytical grade, Kanto Kagaku), adding CREMOPHOR EL (a derivative of caster oil and ethylene oxide, final concentration: 10%, Sigma Chemical) to the solution, and suspending the solution in physiological saline (Otsuka Physiological Saline for Injection, Otsuka Pharmaceutical). For evaluation of the effect, a tumor volume was calculated in accordance with Equation 1, a ratio of tumor volume (V) after the administration of drug solution to tumor volume (V0) before the administration of drug solution was calculation (V/V0), and the ratio was compared with that for the untreated group to determine T/C (Equation 2). In the table, administration dose, T/C and evaluation day are shown. [formula]

| Compound | IC50 [1] [µM] | IC50 [2] [µM] | response vs control in vivo at 500 mg/kg/day [3] [%] | response vs control in vivo at 250 mg/kg/day ([3]; 96 h, 250 mg/kg/day intraperitoneally once a day for 5 days, evaluation day 4) [%] |
| --- | --- | --- | --- | --- |
| Oc1ccc(SCCN(O)CCSc2ccc(O)cc2)cc1 [Compound 48] | 5.16 | 1.73 | 54 | – |
| Oc1ccc(SCC(O)CSc2ccc(O)cc2)cc1 [Compound 156] | 5.45 | 2.27 | – | – |
| Oc1ccc(SCSCSc2ccc(O)cc2)cc1 [Compound 158] | 12.7 | 1.42 | – | – |
| Oc1ccc(SCC=CCSc2ccc(O)cc2)cc1 [Compound 159] | 6.89 | 0.69 | – | – |
| Oc1ccc(SCC#CCSc2ccc(O)cc2)cc1 [Compound 160] | 20.1 | 0.95 | – | – |
| Oc1ccc(SCc2ccccc2CSc2ccc(O)cc2)cc1 [Compound 161] | 34.2 | 1.13 | – | – |
| Oc1ccc(SCCOCOCCSc2ccc(O)cc2)cc1 [Compound 162] | 3.7 | 1.7 | – | – |
| Oc1ccc(SCCOCCOCCSc2ccc(O)cc2)cc1 [Compound 163] | 5.17 | 2.1 | – | – |
| Oc1ccc(SCC(O)COCCOCC(O)CSc2ccc(O)cc2)cc1 (centres unmarked) [Compound 166] | 31.2 | 3.09 | – | – |
| Oc1ccc(SCCOCCOCCOCCSc2ccc(O)cc2)cc1 [Compound 171] | 30 | 8.01 | – | – |
| Oc1ccc(SCCOCCOCCOCCOCCSc2ccc(O)cc2)cc1 [Compound 172] | 19.5 | 2.64 | – | – |
| Oc1ccc(SCCOCCOCCOCCOCCOCCSc2ccc(O)cc2)cc1 [Compound 173] | 12.9 | 3.63 | – | – |
| CC1(C)OC(CSc2ccc(O)cc2)C(CSc2ccc(O)cc2)O1 (centres unmarked) [Compound 183] | 10.4 | 0.42 | – | – |
| Oc1ccc(SCCC(O)CSc2ccc(O)cc2)cc1 (centres unmarked) [Compound 184] | 2.46 | 0.3 | – | – |
| O=C(CSc1ccc(O)cc1)C(=O)CSc1ccc(O)cc1 [Compound 186] | 56 | 11.9 | – | – |
| O=C(NCCCSc1ccc(O)cc1)C1C2C=CC(C2)C1C(=O)NCCCSc1ccc(O)cc1 (centres unmarked) [Compound 191] | 4.78 | 1.36 | – | – |
| O=C(NCCCSc1ccc(O)cc1)C1(C(=O)NCCCSc2ccc(O)cc2)CCCC1 [Compound 192] | 4.51 | 2.85 | – | – |
| CC(=O)Oc1ccc(SCCN(CCSc2ccc(OC(C)=O)cc2)CC(N)=O)cc1 [Compound 193] | 0.36 | – | – | 46 |
| Oc1ccc(SCCN(CCSc2ccc(O)cc2)CCC2OCCCO2)cc1 [Compound 194] | 11.7 | 0.84 | – | – |
| CS(=O)(=O)NCCN(CCSc1ccc(O)cc1)CCSc1ccc(O)cc1 [Compound 195] | 3.16 | 0.55 | – | – |
| Oc1ccc(SCCN(CCSc2ccc(O)cc2)Cc2c[nH]cn2)cc1 [Compound 196] | 7.08 | 1.52 | – | – |
| COCCOCCOCCN(CCSc1ccc(O)cc1)CCSc1ccc(O)cc1 [Compound 197] | 4.06 | 3.24 | – | – |

| Compound | IC50 [1] [µM] | IC50 [2] [µM] | response vs control in vivo at 500 mg/kg/day [3] [%] | response vs control in vivo at 250 mg/kg/day ([3]; 96 h, 250 mg/kg/day intraperitoneally once a day for 5 days, evaluation day 4) [%] |
| --- | --- | --- | --- | --- |
| COCCOCCN(CCSc1ccc(O)cc1)CCSc1ccc(O)cc1 [Compound 198] | 4.85 | 4.86 | – | – |
| OCCOCCN(CCSc1ccc(O)cc1)CCSc1ccc(O)cc1 [Compound 199] | 5.14 | 3.99 | – | – |
| CC1(C)OCC(CN(CCSc2ccc(O)cc2)CCSc2ccc(O)cc2)O1 (centres unmarked) [Compound 200] | 4.13 | 4.2 | – | – |
| OCC(O)CN(CCSc1ccc(O)cc1)CCSc1ccc(O)cc1 (centres unmarked) [Compound 201] | 4.29 | 2.49 | – | – |
| N=C(N)NCCN(CCSc1ccc(O)cc1)CCSc1ccc(O)cc1 [Compound 202] | 42.6 | 1.87 | – | – |
| O=C(CN(CCSc1ccc(O)cc1)CCSc1ccc(O)cc1)N1CCCCC1 [Compound 203] | 3.45 | 3.18 | – | – |
| N#CCCN(CCC#N)C(=O)CN(CCSc1ccc(O)cc1)CCSc1ccc(O)cc1 [Compound 204] | 3.38 | 1.5 | – | – |
| O=C(CN(CCSc1ccc(O)cc1)CCSc1ccc(O)cc1)NC(CO)CO [Compound 205] | 7.32 | 1.19 | – | – |
| O=C(CN(CCSc1ccc(O)cc1)CCSc1ccc(O)cc1)N1CCC[C@H]1CO [Compound 206] | 3.31 | 1.13 | – | – |
| O=C(CN(CCSc1ccc(O)cc1)CCSc1ccc(O)cc1)NCCO [Compound 207] | 1.71 | 0.87 | – | – |
| O=C(CN(CCSc1ccc(O)cc1)CCSc1ccc(O)cc1)N(CCO)CCO [Compound 208] | 5.93 | 3.46 | – | – |
| O=C(CN(CCSc1ccc(O)cc1)CCSc1ccc(O)cc1)Nc1nccs1 [Compound 210] | 2.82 | 5.91 | – | – |
| CC[N+](CC)(CC)CCCN(CCSc1ccc(O)cc1)CCSc1ccc(O)cc1 [Compound 213] | 180 | 2.06 | – | – |
| OC[C@H]1OC(N(CCSc2ccc(O)cc2)CCSc2ccc(O)cc2)[C@@H](O)[C@@H](O)[C@@H]1O (some centres unmarked) [Compound 214] | 7.73 | 2.69 | – | – |
| OC[C@H]1OC(N(CCSc2ccc(O)cc2)CCSc2ccc(O)cc2)[C@H](O)[C@@H](O)[C@@H]1O (some centres unmarked) [Compound 215] | 12.7 | 3.68 | – | – |
| OC[C@@H]1OC(N(CCSc2ccc(O)cc2)CCSc2ccc(O)cc2)[C@@H](O)[C@H](O)[C@H]1O (some centres unmarked) [Compound 216] | 11.5 | 3.63 | – | – |
| OC[C@@H]1OC(N(CCSc2ccc(O)cc2)CCSc2ccc(O)cc2)[C@H](O)[C@H](O)[C@H]1O (some centres unmarked) [Compound 218] | 23.2 | 4.97 | – | – |
| NC(=O)[C@H]1OC(N(CCSc2ccc(O)cc2)CCSc2ccc(O)cc2)[C@H](O)[C@@H](O)[C@@H]1O (some centres unmarked) [Compound 219] | 25.2 | 3.51 | – | – |
| COCC(=O)Oc1ccc(SCCN(CCSc2ccc(OC(=O)COC)cc2)CC(N)=O)cc1 [Compound 220] | 0.29 | 5.2 | – | – |
| CNCC(=O)Oc1ccc(SCCN(CCSc2ccc(OC(=O)CNC)cc2)CC(N)=O)cc1 [Compound 222] | 0.36 | 0.43 | – | – |
| CC(C)(CSc1ccc(O)cc1)C(=O)N1CCN(C(=O)C(C)(C)CSc2ccc(O)cc2)CC1 [Compound 227] | – | – | 53 | – |
